According to patent US9988430B2, “Stable GLP-1 based GLP-1/glucagon receptor co-agonists” (Novo Nordisk A/S, priority 2014, dated 2018):
*1 amine or outer side, *2 acyl side, *3 side chain or, on linkers, in order; H or OH if unused. Where a SMILES comes first, the peptide text is derived from it. Bridges are numbered along the chain shown (N, C = ends). Roman numbers before positions name the chains, in order. [ ]: non-standard residue; d: D form. The star is where a group is joined. C18 diacid = O=C(O)CCCCCCCCCCCCCCCCC(=O)*; γGlu = O=C(O)[C@H](CCC(=O)[*:2])N[*:1]; Desaminohistidyl = O=C(CCc1c[nH]cn1)*; Ac4c = NC1(C(=O)O)CCC1; Aib = CC(C)(N)C(=O)O

Target: T1, human GLP-1 receptor (Homo sapiens, UniProt P43220)
T1 construct: expressed in transfected cells; host or cells: membranes of BHK cells, parent line BHKTS13, clone FCW467-12A
Experiment: Assay (II)(a): GLP-1 receptor binding, [125I]GLP-1 displacement, SPA on BHK membranes
Details: displacement of [125I]GLP-1, membranes with human GLP-1 receptor; read-out: IC50 GLP-1R
Protocol: Assay (II): GLP-1 and Glucagon Receptor Binding The purpose of this assay is to test the in vitro receptor binding activity of the GLP-1 derivatives of the invention. (a) GLP-1 Receptor Binding The GLP-1 receptor (GLP-1R) binding is a measure of the affinity of a derivative for the human GLP-1 receptor. The GLP-1 receptor binding of each derivatives were determined with competitive binding, displacing [^125I]GLP-1 bound to GLP-1 receptors expressed in cell membranes associated with wheat germ agglutinin (WGA) scintillation proximity assay (SPA) beads. Each derivative was added in a series of concentrations to isolated membranes comprising the human GLP-1 receptor and displacement of the labelled radioligand was monitored. The receptor binding was reported as the concentration at which half of the labelled ligand is displaced from the receptor, the IC^50 value. The following chemicals were used in the assay: MEM w/o phenol red (Gibco 11880-028), Pen/strep (Invitrogen 15140-122), G418 (Invitrogen 10131-027), 1 M Hepes (Gibco 15630), EDTA (Invitrogen 15575-038), PBS (Invitrogen 14190-094), fetal calf serum (Invitrogen 16140-071), EGTA, MgCl2 (Merck 1.05832.1000), Tween 20 (Amresco 0850C335), SPA particles (wheat germ agglutinin (WGA) SPA beads, Perkin Elmer RPNQ0001), [125I]-GLP-1]-(7-36)NH2 (produced in-house), OptiPlate™-96 (Perkin Elmer). Buffer 1 consisted of 20 mM Na-HEPES plus 10 mM EDTA and pH was adjusted to 7.4. Buffer 2 consisted of 20 mM Na-HEPES plus 0.1 mM EDTA and pH was adjusted to 7.4. Assay buffer consisted of 50 mM HEPES supplemented with 5 mM EGTA, 5 mM MgCl2, 0.005% Tween 20 and pH was adjusted to 7.4. A 0.02% albumin stock consisted of HSA dissolved at 0.02% (w/v) in assay buffer. The cells used in this assay (clone FCW467-12A) were BHK cells with BHKTS13 as a parent cell line. The cells express the human GLP-1 receptor. The cells were grown at 5% CO2 in DMEM, 10% fetal calf serum, 1% Pen/Strep (Penicillin/Streptomycin) and 1.0 mg/ml of the selection marker G418. To make a membrane preparation the cells were grown to approximately 80% confluence. The cells were washed twice in phosphate-buffered saline and harvested. The cells were pelleted using a brief centrifugation and the cell pellet was kept on ice. The cell pellet was homogenised with ULTRA-THURRAX dispersing instrument for 20-30 seconds in a suitable amount of buffer 1 (e.g., 10 ml). The homogenate was centrifuged for 15 minutes. The pellet was re-suspended (homogenised) in 10 ml buffer 2 and centrifuged. This step was repeated once more. The resulting pellet was re-suspended in buffer 2 and the protein concentration was determined. The membranes were aliquoted and stored at minus 80° C. • 1. For the receptor binding assay 50 μl of the assay buffer was added to each well of an assay plate. • 2. Test compounds were serially diluted to give the following concentrations: 8×10EE-7 M, 8×10EE-8 M, 8×10EE-9 M, 8×10EE-10 M, 8×10EE-11 M, 8×10EE-12 M and 8×10EE-13 M. Twenty-five μl were added to appropriate wells in the assay plate. • 3. Cell membrane aliquots were thawed and diluted to their working concentration. Fifty μl were added to each well in the assay plate. • 4. WGA SPA beads were suspended in assay buffer at 20 mg/ml. The suspension was diluted to 10 mg/ml in assay buffer just prior to addition to the assay plate. Fifty μl were added to each well in the assay plate. • 5. The incubation was started by adding 25 μl of 480 pM solution of [125I]-GLP-1]-(7-36)NH2 to each well of the assay plate. A 25 μl aliquot was reserved for measuring total counts/well. • 6. The assay plate was incubated for 2 h at 30° C. • 7. The assay plate was centrifuged for 10 min. • 8. The assay plate was read in a Perkin Elmer TopCount NXT instrument. Calculations The data from the TopCount instrument were transferred to GraphPad Prism software. The software averaged the values for the replicates and performed a non-linear regression. IC50 values were calculated by the software and reported in nM. […]

T1 sequence (P43220 24-463): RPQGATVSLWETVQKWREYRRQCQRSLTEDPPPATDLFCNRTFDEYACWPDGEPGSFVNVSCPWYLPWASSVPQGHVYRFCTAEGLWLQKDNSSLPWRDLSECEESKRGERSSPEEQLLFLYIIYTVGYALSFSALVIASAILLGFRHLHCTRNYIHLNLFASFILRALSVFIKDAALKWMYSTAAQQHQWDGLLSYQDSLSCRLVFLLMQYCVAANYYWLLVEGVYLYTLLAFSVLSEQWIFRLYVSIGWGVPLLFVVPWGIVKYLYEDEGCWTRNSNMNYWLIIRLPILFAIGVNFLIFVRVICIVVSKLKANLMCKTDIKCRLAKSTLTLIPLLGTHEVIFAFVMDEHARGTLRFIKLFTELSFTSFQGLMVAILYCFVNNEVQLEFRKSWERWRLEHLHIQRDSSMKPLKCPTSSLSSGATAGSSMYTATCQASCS

Row | SMILES | IC50
1 | CC[C@H](C)[C@H](NC(=O)[C@H](Cc1ccccc1)NC(=O)[C@H](CCC(=O)O)NC(=O)[C@H](CCCNC(=N)N)NC(=O)[C@H](C)NC(=O)[C@H](C)NC(=O)[C@H](CCC(N)=O)NC(=O)[C@H](CCC(=O)O)NC(=O)[C@H](CCC(=O)O)NC(=O)[C@H](CC(C)C)NC(=O)[C@H](Cc1ccc(O)cc1)NC(=O)[C@H](CCCCN)NC(=O)[C@H](CO)NC(=O)[C@@H](NC(=O)[C@H](CC(=O)O)NC(=O)[C@H](CO)NC(=O)[C@@H](NC(=O)[C@H](Cc1ccccc1)NC(=O)[C@@H](NC(=O)CNC(=O)[C@H](Cc1c[nH]cn1)NC(=O)C(C)(C)NC(=O)CCc1c[nH]cn1)[C@@H](C)O)[C@@H](C)O)C(C)C)C(=O)N[C@@H](C)C(=O)N[C@@H](Cc1c[nH]c2ccccc12)C(=O)N[C@@H](CC(C)C)C(=O)N[C@@H](CC(C)C)C(=O)N[C@@H](CCCCNC(=O)CC[C@H](NC(=O)CC[C@H](NC(=O)[C@H](CO)NC(=O)CNC(=O)[C@H](CCC(=O)O)NC(=O)[C@H](CO)NC(=O)CNC(=O)CCCCCCCCCCCCCCCCC(=O)O)C(=O)O)C(=O)O)C(=O)N[C@H](C(=O)O)[C@@H](C)O [Example 27, N^ε34-[(4S)-4-carboxy-4-[[(4S)-4-carboxy-4-[[(2S)-2-[[2-[[(2S)-4-carboxy-2-[[(2S)-2-[[2-(17-carboxyheptadecanoylamino)acetyl]amino]-3-hydroxypropanoyl]amino]butanoyl]amino]acetyl]amino]-3-hydroxypropanoyl]amino]butanoyl]amino]butanoyl]-[Imp7,Aib8,His9,Lys18,Glu22,Arg26,Leu33,Thr35]-GLP-1-(7-35)-peptide] (I: Desaminohistidyl-[Aib]HGTFTSDVSKYLEEQAAREFIAWLLKT-OH / II: {C18 diacid}-GSEGS[γGlu][γGlu]; amide I:27-II:C) | 2.3 nM
2 | CC[C@H](C)[C@H](NC(=O)[C@H](Cc1ccccc1)NC(=O)[C@H](CCC(=O)O)NC(=O)[C@H](CCCNC(=N)N)NC(=O)[C@H](C)NC(=O)[C@H](C)NC(=O)[C@H](CCC(N)=O)NC(=O)[C@H](CCC(=O)O)NC(=O)[C@H](CCC(=O)O)NC(=O)[C@H](CC(C)C)NC(=O)[C@H](Cc1ccc(O)cc1)NC(=O)[C@H](CCCCN)NC(=O)[C@H](CO)NC(=O)[C@@H](NC(=O)[C@H](CC(=O)O)NC(=O)[C@H](CO)NC(=O)[C@@H](NC(=O)[C@H](Cc1ccccc1)NC(=O)[C@@H](NC(=O)CNC(=O)[C@H](Cc1c[nH]cn1)NC(=O)C1(NC(=O)CCc2c[nH]cn2)CCC1)[C@@H](C)O)[C@@H](C)O)C(C)C)C(=O)N[C@@H](C)C(=O)N[C@@H](Cc1c[nH]c2ccccc12)C(=O)N[C@@H](CC(C)C)C(=O)N[C@@H](CC(C)C)C(=O)N[C@@H](CCCCN)C(=O)N[C@@H](CCCCNC(=O)CNC(=O)[C@H](CO)NC(=O)[C@H](CCC(=O)O)NC(=O)CNC(=O)[C@H](CO)NC(=O)CC[C@H](NC(=O)CC[C@H](NC(=O)CCCCCCCCCCCCCCCCC(=O)O)C(=O)O)C(=O)O)C(N)=O [Example 2, N^ε35-[2-[[(2S)-2-[[(2S)-4-carboxy-2-[[2-[[(2S)-2-[[(4S)-4-carboxy-4-[[(4S)-4-carboxy-4-(17-carboxyheptadecanoylamino)butanoyl]amino]butanoyl]amino]-3-hydroxypropanoyl]amino]acetyl]amino]butanoyl]amino]-3-hydroxypropanoyl]amino]acetyl]-[Imp7,Acb8,His9,Lys18,Glu22,Arg26,Leu33,Lys35]-GLP-1-(7-35)-peptide amide] (I: Desaminohistidyl-[Ac4c]HGTFTSDVSKYLEEQAAREFIAWLLKK-NH2 / II: {C18 diacid-γGlu-γGlu}-SGESG; amide I:28-II:C) | 0.1 nM
